These results are taken from paper PMC6961122 (Bioorganic & Medicinal Chemistry, 2020).

A value given as a limit tells only on which side of the number the result lay.

The subject of one test is U87 cells. Put plainly: Cell viability assay (PrestoBlue, 5 d) in U87 glioma cells. It is filed as cell-based. The settings on record: library screen, 5 d treatment, mean of three independent experiments in triplicates, read-out: EC50 U87 ± SEM. On the procedure:
(§1) The antiproliferative activity of a total of 100 compounds was tested against U87 and T98 glioma cell lines, using TMZ[3] and the Topoisomerase I inhibitor SN-38[18] as positive controls. Cells were treated with the library members for 5 d at three different concentrations (3, 30 and 300 µM) and cell viability determined using the PrestoBlue reagent. Half-maximal effective concentration (EC50) values were calculated from the corresponding dose-response curves and plotted in Fig. 2a as a heatmap to facilitate data analysis, with black meaning no activity and dark to light green to yellow transitions indicating decreasing EC50 values (=increasing potencies). Table 1 of the Suppl. Data contains the corresponding EC50 values ± SEM.
(§2) INK128 and SN-38 were used as positive controls. […] Structurally, these derivatives differed in the size of the alkyl group of the N1 position and the presence or absence of an oxygen atom in that moiety (see Suppl. Data).
(§3) U87 and T98 cells (ATCC) were cultured in DMEM (Gibco), supplemented with 10% (v/v) FBS (Gibco) and 2 mM L-Glutamine (Gibco) in a standard incubator (95% humidity, 5% CO2), and subcultured twice per week through trypsinization. G317 patient-derived glioma cells were established by the Glioma Cellular Genetics Resource (gcgr.org.uk) funded by Cancer Research UK. Ethics approval for use of patient-derived cells and early access confirmation to reagents from the Glioma Cellular Genetics Resource assured that all ethical issues according to UK legislation are fulfilled. G317 were cultured in DMEM/HAMS-F12 (Sigma) supplemented with 1.5 g L^−1 D-(+)-Glucose (Sigma), MEM non-essential aminoacids (Gibco), 0.015% (w/v) Penicillin-Streptomycin (Gibco), 0.012% (w/v) BSA (Gibco), 0.1 mM β-mercaptoethanol (Gibco), B27 (Gibco) and N2 supplements (Gibco). Cells were detached using accutase solution (Sigma) and subcultured once per week. Before adding to the cells, medium was supplemented with 10 ng ml^−1 mouse EGF (Preprotech), 10 ng ml^−1 human FGF (Preprotech), and 1 µg ml^−1 Laminin (Sigma).
(§4) 1 × 10^3 U87 cells/well, 5 × 10^2 T98 cells/well, 1 × 10^4 G317 cells/well, 1 × 10^4 HBVP cells/well and 1 × 10^4 bEnd3 cells/well were seeded in 96-well plates. After 48 h in culture, cells were treated with the inhibitors for 5 d. For GI50 determination, the viability of a triplicate sample of each experiment before treatment was measured with the PrestoBlue Reagent (Invitrogen), to establish a basepoint 0% of growth. […] ZIP Synergy scores were obtained with Synergy finder.[22] Viability percentage, EC50 and GI50 values were obtained using GraphPad Prism version 8.0.0 for Windows, GraphPad Software, San Diego, California USA, www.graphpad.com.

For another test, the system named is T98 cells. Kind of test: Cell viability assay (PrestoBlue, 5 d) in T98 glioma cells. It is filed as cell-based. The settings on record: library screen, 5 d treatment, mean of three independent experiments in triplicates, read-out: EC50 T98 ± SEM. On the procedure: as §1, §2, §3, §4

Take `Cc1ccc(-c2nn(CCN3CCOCC3)c3ncnc(N)c23)cc1` [eCF102]: the EC50 with U87 cells and in the test on T98 cells was above 30 µM in each case.
Regarding `Cc1ccc(-c2nn(CCN3CCN(C)CC3)c3ncnc(N)c23)cc1` [eCF103], the EC50 with U87 cells and with T98 cells was above 30 µM each time.
As for `Cc1ccc(-c2nn(CCN3CCN(CCO)CC3)c3ncnc(N)c23)cc1` [eCF104], the EC50 in the test on U87 cells and in the test on T98 cells was above 30 µM throughout.
`Cc1ccc(-c2nn(CCN3CCN(CCN(C)C)CC3)c3ncnc(N)c23)cc1` [eCF105]: the EC50 in the test with U87 cells and with T98 cells was above 30 µM each time.
Regarding `Cc1ccc(-c2nn(CCN3CCC(O)CC3)c3ncnc(N)c23)cc1` [eCF106], the EC50 with U87 cells and in the test with T98 cells was above 30 µM each time.
On to `Cc1ccc(-c2nn(CCN3CCC(CO)CC3)c3ncnc(N)c23)cc1` [eCF107], for which the EC50 with U87 cells and in the test on T98 cells was above 30 µM in each case.
Take `Cc1ccc(-c2nn(CCN3CCC(N(C)C)CC3)c3ncnc(N)c23)cc1` [eCF109]: the figures for the EC50 in the test on U87 cells and in the test on T98 cells were above 30 µM and 26.3 ± 7.3 µM, respectively.
For `Cc1ccc(-c2nn(CCN3CCC(C)CC3)c3ncnc(N)c23)cc1` [eCF110], in that order: above 30 µM and above 30 µM.
The matching figures for `Cc1ccc(-c2nn(CCN3CCCCC3)c3ncnc(N)c23)cc1` [eCF111]: above 30 µM and above 30 µM.
As for `Cc1ccc(-c2nn(CCN3CCC(CN(C)C)CC3)c3ncnc(N)c23)cc1` [eCF112], the EC50 in the test with U87 cells was 6.63 ± 1.44 µM; in the test with T98 cells, 6.28 ± 1.91 µM.
The matching figures for `Cc1ccc(-c2nn(CCN3CCC(CCN(C)C)CC3)c3ncnc(N)c23)cc1` [eCF113]: 6.74 ± 1.48 µM and 5.72 ± 1.95 µM.
For the compound `CCOC(Cn1nc(-c2ccc3ncccc3c2)c2c(N)ncnc21)OCC` [eCF203], the EC50 with U87 cells and in the test on T98 cells was above 30 µM in each case.
As for `CCOC(Cn1nc(-c2ccc(OC)c(OC)c2)c2c(N)ncnc21)OCC` [eCF204], the half-maximal effective concentration (EC50) in the test on U87 cells and in the test on T98 cells was above 30 µM in each case.
For the compound `CCOC(Cn1nc(-c2cccc(O)c2)c2c(N)ncnc21)OCC` [eCF205], the 50% effective concentration (EC50) in the test on U87 cells and in the test on T98 cells was above 30 µM each time.
In the case of `CCOC(Cn1nc(-c2ccoc2)c2c(N)ncnc21)OCC` [eCF206], the EC50 in the test on U87 cells and in the test on T98 cells was above 30 µM each time.
In the case of `CCOC(Cn1nc(-c2cccc(NC(=O)OC(C)(C)C)c2)c2c(N)ncnc21)OCC` [eCF207], the EC50 in the test with U87 cells and with T98 cells was above 30 µM throughout.
Take `CCOC(Cn1nc(-c2cccc(C(N)=O)c2)c2c(N)ncnc21)OCC` [eCF208]: the EC50 in the test with U87 cells and with T98 cells was above 30 µM each time.
Consider `CCOC(Cn1nc(-c2ccc(C(N)=O)cc2)c2c(N)ncnc21)OCC` [eCF209], for which the EC50 with U87 cells and in the test with T98 cells was above 30 µM throughout.
In the case of `CN(C)CC1CCN(CCn2nc(-c3ccc4[nH]ccc4c3)c3c(N)ncnc32)CC1` [eCF221], the EC50 in the test on U87 cells came out at 18.7 ± 4.91 µM; in the test with T98 cells it was 16.8 ± 3.66 µM.
For `CN(C)CC1CCN(CCn2nc(-c3ccc4ncccc4c3)c3c(N)ncnc32)CC1` [eCF223], in that order: above 30 µM and above 30 µM.
As to `COc1ccc(-c2nn(CCN3CCC(CN(C)C)CC3)c3ncnc(N)c23)cc1OC` [eCF224], the EC50 with U87 cells and in the test with T98 cells was above 30 µM in each case.
With `CN(C)CC1CCN(CCn2nc(-c3cccc(O)c3)c3c(N)ncnc32)CC1` [eCF225], the EC50 in the test with U87 cells and with T98 cells was above 30 µM each time.
With `CN(C)CC1CCN(CCn2nc(-c3ccoc3)c3c(N)ncnc32)CC1` [eCF226], the EC50 in the test on U87 cells and in the test on T98 cells was above 30 µM in each case.
For `CN(C)CC1CCN(CCn2nc(C#Cc3ccccc3)c3c(N)ncnc32)CC1` [eCF230], the 50% effective concentration (EC50) is 18.2 ± 1.2 µM in the test on U87 cells and 13.7 ± 1.84 µM in the test on T98 cells.
The matching figures for `Nc1ncnc2c1c(-c1cnc3[nH]ccc3c1)nn2CC1OCCO1` [eCF307]: 11.3 ± 2.56 µM and 13.1 ± 2.65 µM.

For orientation: EC50 means the concentration giving half of the maximal effect.
